Where two headings read alike, the source gives them in different places.
Legend:
OMA-BL1 cells = assay: Growth rate / doubling time of OMA-BL1 cells cultured with oligo; format: cell-based, human; settings: for Doubling Time (Hours of Doubling): observed for 5 days
Method: A cell line, OMA-BL1, of cells derived from an American Burkitt's lymphoma patient, which had the typical 8:14 chromosome translocation characteristic of Burkitt's lymphoma was tested according to the method of the invention. The OMA-BL1 cells have a homologous staining region along chromosome 18 (18 HSR). The cell line was grown in vitro consisting of RPMI 1640 medium supplemented with 20% fetal calf serum (RF20). 2 mM L-glutamine and antibiotics (streptomycin 100 μ/ml and penicillin) 2× week.
Phosphorothioate oligonucleotides corresponding to the recognition sequence for telomerase enzyme were synthesized. The sequence of oligonucleotides tested was 5'-(TTAGGG)-3' SEQ ID NO: 3. They were dissolved in RPMI1640 medium before using.
The cell lines were grown under concentration of 5×10^5 cells/ml and RPMI1640 with and without different concentrations of oligo. Concentrations of oligo used in the study were 1.25 μM and 2.5 μM. The growth rate of the cells was measured by counting the cells with a light microscope and Neuber cell counter on days 1, 3, and 5 after initiation of the culture. […]

cell line = settings: cited from earlier work
[1] = system: OMA-BL1, Burkitt's Lymphoma; assay: In vivo efficacy, OMA-BL1 Burkitt's lymphoma in nude mice, continuous subcutaneous infusion
Method: Nude mice were injected with 5×10^6 OMA-BL1 cells subcutaneously in the leg flank. The mice were observed daily for the appearance of tumors and general well-being. […] The mean fill volume of these pumps is 0.226 ml. A solution of 4 mg/ml of 6-mers and 20 μl of FITC-TAG-6 was prepared then sterile filtered through a 0.22 μm in line filter (Millipore). […]

telomerase [2] = assay: Telomerase activity in OMA-BL1 cell lysate (densitometry of autoradiograph); format: biochemical, human; settings: test not specified at b115
Method: An OMA-BL1 cell lysate was prepared to retain telomerase activity. The telomerase enzyme adds radioactive nucleic acids to the substrate which are separated on a polyacrylamide gel. The relative radioactivity in the gel was measured by densitomitry of the autoradiograph.

[3] = system: highly metastatic breast cancer cell line (Human); assay: Tumor invasion assay (Matrigel invasion chambers) and proliferation, human breast cancer cell line; format: cell-based; settings: for % control invasion / % inhibition: Human cell line, 48 hours; for proliferation (in words): human highly metastatic breast cancer cell line; for % inhibition: invasion
410.4 cells = assay: Tumor invasion assay (Matrigel invasion chambers) and proliferation, mouse breast cancer cell line; format: cell-based; settings: for % control invasion / % inhibition: Mouse cell line, 48 hours; for % inhibition: invasion; for proliferation (in words): mouse highly metastatic breast cancer cell line
Method: Migration of 410.4 cells through matrigel coated Nucleopore filters was measured using Matrigel invasion chambers (Collaborative Biomedical Products). These chambers contained inserts with […] pore size and were coated with a uniform film of matrigel. 4×10^4 410.4 cells in Weymouths Medium plus 0.1% bovine serum albumin were added to the invasion chambers. The wells below the invasion chambers contained 0.5 ml of Weymouths plus 10% fetal calf serum as a chemoattractant. […] The noninvasive cells were then removed from the upper surface of the membrane with a cotton swab and the cells on the lower surface were stained using a Leucostat staining kit. The membranes then were removed from the chamber using a scalpel and the cells were counted under high power (450×) in 5 random fields.

telomerase [4] = assay: HPB-null cell lysate, incorporation of labeled nucleic acids onto TELIGO 18-mer; format: cell-based; settings: HPB-null cells
Telomerase enzyme = assay: Telomerase activity in extract of Chang cells incubated with oligo (32P-dGTP primer elongation, gel autoradiograph); format: cell-based, human; settings: 3 μM oligo, three hours
Method: Chang cells (human liver carcinoma) were grown in three T150 flasks until they reached confluency. 5'-d(TTAGGG)-3' SEQ ID NO: 3 phosphorothioate oligonucleotide was added at 3 μM concentration to each of the flasks and was allowed to incubate for three hours. Cells were harvested by scraping with a rubber policeman. Telomerase enzyme was prepared according to the method of Dignam, J. D.; Lebovitz, R. M.; and Raeder, R. G. (1983). Accurate transcription initiation by RNA Polymerase II in a Soluble Extract From Isolated Mammalian Nuclei. Nucl. Acids Res. 11, 1475-1489. 20 μL samples were taken from -80° C. and 20 μL of a reaction mixture containing 4.0mM dATP, 4.0mM dTTP, 4.0 mM dGTP, 2.0 μM (5'-d(TTAGGG)3 -3') SEQ ID NO: 4 primer, 10 mM β-mercaptanol, 100 mM TRIS-acetate pH 8.5, 2.0 mM MgCl2, 1 mM spermidine, and 2 μL of 3000 Ci/mmol P^32 labeled dGTP.
Samples were incubated for 30 minutes at 30° C. and stopped by the addition 10 μL […] EDTA pH 8.0 and 2.0 μL of tracking dye. Samples were loaded onto a 12.5 percent acrylamide gel and run at 25 mA constant power for 4-5 hours until the tracking dye had run off the gel. The gel was then soaked in 10 percent glycerol and water and dried overnight between two sheets of cellophane. […] The telomerase activity was inhibited for the 6-mer oligo.

[5] = system: OMA-BL1 cells, PBE1 cells, HPB-null cell line; assay: Cellular uptake of FITC-labeled oligo; format: cell-based; settings: 6-mer compared with 18-mer; cell lines which have differentiated
From the text: Several studies were done on cellular uptake and thus efficiency of oligonucleotide sequences mimicking the telomere motif. FIGS. 4 and 5 depict the comparison of the 18-mer 5'-d(TTAGGG)3 -3' SEQ ID NO: 4 with the 6-mer TELIGO 5'-d(TTAGGG)-3' SEQ ID NO: 3 for cellular uptake of FITC-labeled oligo in OMA-BL1 cells (FIGS. 5 and 4(a)), PBE1 cells FIG. 4(b) and in the nondifferentiated HPB-null cell line FIG. 4(c). […] FIG. 6 depicts the effects of 5'-d(TTAGGG)-3' SEQ ID NO: 3 on growth of OMA-BL1 cells in vitro at 1.25 μM and 2.5 μM.

telomerase [6] = assay: FAM labeled 6-mer recovered from urine of tumor-bearing nude mouse, size analysis of telomerase products; format: in vivo; settings: nude mouse bearing OMA-BL1 tumor
Method: An FAM labeled 6-mer 5'-d(TTAGGG)-3' SEQ ID NO: 3 was injected into nude mice with Burkitt's lymphoma (OMA-BL1) cells growing in them. The FAM labeled TELIGO was recovered from the urine of a nude mouse bearing a tumor composed of OMA-BL1 cells. The urine was evaluated on an Applied Biosystem, Inc. Gene Scanner which can separate the products of the telomerase enzyme by size along the abscissa and reports the quantity of products by the fluorescence intensity along the ordinate in arbitrary units. An internal standard of rhodamine labeled nucleic acids is run in the same gel in order to establish the measurement of size of the telomerase enzyme products of the TELIGO. The FAM label verifies that the DNA is from the injected TELIGO 6-mer and the size additions of intervals of 6-base lengths is evidence of the telomerase enzyme activity which adds 6 bases per catalytic cycle.
All products were multiples of six which is significant because in that telomerase adds bases to telomeres in multiples of six. Thus it would seem the 6-mer interacts with telomerase to form unique products verifying interaction in vivo.

[7] = nude mice, 48 μg/day, 14 days, subcutaneous infusion

Substance	Doubling Time (Hours of Doubling) (OMA-BL1 cells; 1.25 μM oligo) [h]	Doubling Time (Hours of Doubling) (OMA-BL1 cells; 2.5 μM oligo) [h]	effect on cell proliferation (in words) (OMA-BL1 cells)	also measured
5'-d(TTAGGGTTAGGG):' (DNA, backbone not given here) [two telomere repeats]	> 100	> 100	–	days in culture before any observable response (cell line): ≤ 6 days
5'-d(GTTGAGGGG)-3' (DNA, backbone not given here)	49.4 ± 4.02	60.71 ± 4.25	–	–
5'-d(TGTGAG)-3' [reference compound]	42.4 ± 1.8	40.9 ± 2.3	–	tumor regression [1, 7]: no such action was observed
5'AACGGTGAGGGGCAT-3' (chemistry not given here) [c-myc, antisense oligo to the c-myc gene, reference compound]	–	–	significantly decreased cellular proliferation	–
TGTGAGGGG (chemistry not given here) [myc 9-mer, 9-mer derived from the antisense oligo c-myc, contains a motif substantially analogous to the telomere motif]	–	–	effects similar to the 6-met	telomerase activity (in words) (telomerase [2]): inhibited
5'-d(TTAGGGTTAGGGTTAGGG)-3' (DNA, backbone not given here)	> 100	> 100	–	% control invasion [3]: 8%; proliferation (in words) [3]: inhibition of proliferation; % inhibition [3]: 92%; % control invasion (410.4 cells): 21%; % inhibition (410.4 cells): 79%; proliferation (in words) (410.4 cells): inhibition of proliferation; extension on the TELIGO 18-mer (retained radioactivity) (telomerase [4]): dependent upon the dose
5'-d(TAGGG)-3' (DNA, backbone not given here)	48.5 ± 3.0	41.6 ± 2.0	no inhibitory effect	–
5'-d(TTAGGG)-3' (phosphorothioate backbone) [6-mer oligonucleotide which mimics the telomere motif]	59.4 ± 7.5	> 100	drastically decreasing cell proliferation	effect on cell proliferation (in words) (OMA-BL1 cells; listed as phosphorothioate 6-mer): significant decrease in cell proliferation; telomerase activity (elongation on autoradiograph) (Telomerase enzyme): inhibited; cellular uptake of FITC-labeled oligo [5]: considerably higher cellular uptake; % control invasion [3]: 30%; proliferation (in words) [3]: inhibition of proliferation; % inhibition [3]: 70%; % control invasion (410.4 cells): 15%; % inhibition (410.4 cells): 75%; proliferation (in words) (410.4 cells): inhibition of proliferation; toxicity during the treatment [1, 7]: No toxicity was observed; tumor regression [1, 7]: regression of tumors; localization of the oligonucleotide ([1]; tumor bearing nude mice, continuous subcutaneous infusion): localization of the oligonucleotide in tumors; substrate for telomerase in vivo (FAM-labeled products in urine, multiples of six) (telomerase [6]): substrate for telomerase in vivo
5'-d(TTAGG)-3' (DNA, backbone not given here)	31.2 ± 8.5	36.7 ± 3.1	no inhibitory effect	–
5'-d(TTAGGGTTAGGGTTAGGGTTAGGG)-3'	> 100	> 100	–	–
5'TATGCTGTGCCGGGGTCTTCGGGC-3' (chemistry not given here) [c-myb antisense oligonucleotide, reference compound]	–	–	significantly decreased cellular proliferation	–
5'-d(TCCTAGGTCCATGTCGTACGC)-3' (DNA, backbone not given here) [reference compound]	–	38	–	–
5'-d(TGAGG)-3' (DNA, backbone not given here)	30.3 ± 39	42.0 ± 6.8	–	–
